From patent US20220380801A1, “TRIPARTITE SYSTEMS FOR PROTEIN DIMERIZATION AND METHODS OF USE” (priority 2019, published 2022)

Experiments:
[1] = tested on: endogenous IL-2 gene in HEK293 cells; assay: Endogenous gene regulation assay (CRISPRa); format: cell-based, human; settings: 300 nM simeprevir, split dCas9/AD cassette and IL-2 targeted gRNA
Excerpt: CRISPRa relies on the use of a dead Cas9 enzyme (dCas9) with no endonuclease activity to bind to a target site within the promoter region of an endogenous gene via a single guide RNA. Upon recruitment of a transcriptional activator, transcription of the endogenous gene is initiated.
The dCas9 and AD are separately fused to the two protein components of the CID such that, only in the presence of the small molecule inducer, the AD is brought into close proximity to dCas9, allowing recruitment of the transcription machinery to the promoter region of an endogenous gene via a single guide RNA (sgRNA). In this example, an activation plasmid was generated consisting of two functional units; an AD fused to the HCV NS3/4A PR (S139A) (SEQ ID 226) and a dCas9 fused to three tandem copies of PRSIM-23 (SEQ ID 228). The sequences are preceded by a CMV promoter and separated by an internal ribosome entry site (IRES). A gRNA plasmid was generated by golden gate assembly, utilising BsaI. […]
Transcriptional regulation assays were performed in adherent HEK293 cells cultured in 96-well plates. Cells enzymatically dissociated from a tissue culture flask were counted and plated at 2.5×10^4 cells/well. […] 72 hours post-treatment (day 6), the cell supernatant was harvested and IL-2 quantified using a V-PLEX Human IL-2 Kit (Meso Scale Discovery), as per the manufacturer's protocol.

hESC line Sa121 = assay: PRSIM-based kill switch activity in ESC cells (confluency); format: cell-based, human
Procedure: The hESC line Sa121 (TakaraBio Europe) was also transduced with the lentiviral particles encoding the PRSIM-based kill switch fusion protein described above (SEQ ID 223). Cells (passage 19) were plated at 3.5×10^5 cells/cm^2 in the DEF-CS culture system, and the cells were transduced 30 h later. 24 h after transduction, puromycin selection was initiated and the antibiotic selection was maintained until a stable cell pool was achieved.
To test the induction of the kill switch in Sa121 ES cells, the cells were plated at 3.5×10^5/cm^2 two days before inducing kill switch activity by treating with simeprevir at concentrations from 10 nm to 1 uM. The cells were imaged using the Incucyte S3 (EssenBioscience) at intervals ranging from 10-20 min; kill switch efficiency was quantified by image analysis of confluency.

[2] = tested on: IL-2 production by split CAR-expressing Jurkat cells; assay: Split chimeric antigen receptor activation assay; format: cell-based
Excerpt: A chimeric antigen receptor (CAR), a synthetic, genetically engineered version of a T-cell receptor, can direct the activation of immune cells in response to user-defined targets via target-specific recognition domains, e.g. a single chain variable antibody fragment (scFv). These multi-domain, synthetic proteins are typically constructed by fusion of the target recognition domain to a transmembrane domain, T-cell receptor co-stimulatory domain and a C-terminal CD3 zeta cytoplasmic activation domain. A split-CAR can be generated by expressing the target recognition/transmembrane/co-stimulatory domain and the CD3 zeta activation domain as two separate proteins. […]
Lentiviral particles encoding each split CAR were generated using the pPACKH1 HIV lentivector packaging kit (Systems Bioscience), according to the manufacturer's protocol. […] Split CAR-transduced Jurkat cell pools were FACS-sorted based on GFP fluorescence to achieve equivalent expression levels for both the FKBP12:FRB and HCV NS3/4A PR (S139A):PRSIM_23 CARs before functional testing. Activation of the split-CAR-expressing Jurkat cells can be measured by interleukin-2 (IL-2) production after stimulation of the CAR (Smith-Garvin, Koretzky, and Jordan 2009). […]

COc1ccc2c(O[C@@H]3C[C@H]4C(=O)N[C@]5(C(=O)NS(=O)(=O)C6CC6)C[C@H]5/C=C\CCCCN(C)C(=O)[C@@H]4C3)cc(-c3nc(C(C)C)cs3)nc2c1C [simeprevir]
IL-2 secretion [1]: resulted in secretion of IL-2 | cell killing (hESC line Sa121; 10 nM simeprevir, 4 hours timeframe): maximal cell killing was not reached | cell killing (hESC line Sa121; 100 nM simeprevir, within 4 hours): ~90% | onset of cell killing (hESC line Sa121; 1 μM simeprevir): ~15 min | cells eliminated (cell confluency) (hESC line Sa121; 1 μM simeprevir, within 4 hours, kill switch-transduced Sa121): up to 95% | response to simeprevir (hESC line Sa121; wt (non-transduced) Sa121 cells): did not respond to treatment with simeprevir | activation of CAR-expressing Jurkat cells (IL-2 production) ([2]; co-culture with antigen-negative A375 cells): no activation | activation of CAR-expressing Jurkat cells (IL-2 production) ([2]; co-culture with antigen-positive HepG2 cells): dose-dependent activation
